Earlier results, collected in patent publication US6310089A, “Composition for the administration of a D1-agonists” (West Pharmaceutical Services Drug Delivery & Clinical …, priority 1998, dated 2001).

Experiments:
[1] = test system: Parkinson's disease; settings: D1 partial agonists
[2] = test system: dopamine D1 receptors

| Compound | evaluation outcome [1] | agonism at dopamine D1 receptors [2] |
| --- | --- | --- |
| CN1Cc2ccccc2C2c3cccc4[nH]cc(c34)CC21 (single isomer, unassigned) [CY208.243] | inconclusive results | partial agonists |
| Oc1cc2c(cc1O)C(c1ccccc1)CNCC2 (stereo not shown) [SKF 38393] | inconclusive results | partial agonists |
